Results from the kinase profiling compilation of Christmann-Franck et al. (2016).
Values belong to the molecule of their own block, whether it stands above or below them.

Assays:
Experiment in all cases: KINOMEscan competition binding
Conditions in all cases: compound 10.0 µM
[1] = target: TGFBR1 (human) (UniProt P36897)
[2] = target: TSSK1B (human) (UniProt Q9BXA7)
[3] = target: RAF1 (human) (UniProt P04049)
[4] = target: CDK9 (human) (UniProt P50750)
[5] = target: NEK5 (human) (UniProt Q6P3R8)
[6] = target: CDC42BPB (human) (UniProt Q9Y5S2)
[7] = target: MUSK (human) (UniProt O15146)
[8] = target: TLK2 (human) (UniProt Q86UE8)
[9] = target: CDC2L2 (human) (UniProt Q9UQ88)
[10] = system: FGFR3 (human), P22607 [G697C]
[11] = target: MARK2 (human) (UniProt Q7KZI7)
[12] = target: CAMK4 (human) (UniProt Q16566)
[13] = target: MAPK12 (human) (UniProt P53778)
[14] = target: MARK3 (human) (UniProt P27448)
[15] = target: STK32B (human) (UniProt Q9NY57)
[16] = target: LIMK2 (human) (UniProt P53671)
[17] = target: CSNK1A1L (human) (UniProt Q8N752)
[18] = system: EGFR (human), P00533 [A750P; 747-749 del]
[19] = target: INSRR (human) (UniProt P14616)
[20] = target: MERTK (human) (UniProt Q12866)
[21] = target: STK32C (human) (UniProt Q86UX6)
[22] = target: TEC (human) (UniProt P42680)
[23] = target: CAMK1G (human) (UniProt Q96NX5)
[24] = target: SIK2 (human) (UniProt Q9H0K1)
[25] = target: RPS6KA4 KD1 (human) (UniProt O75676)
[26] = target: EIF2AK2 (human) (UniProt P19525)
[27] = target: NUAK1 (human) (UniProt O60285)
[28] = target: CDK14 (human) (UniProt O94921)
[29] = target: RPS6KA1 KD1 (human) (UniProt Q15418)
[30] = target: PTK2 (human) (UniProt Q05397)
[31] = target: IKBKB (human) (UniProt O14920)
[32] = target: MAP2K2 (human) (UniProt P36507)
[33] = target: IGF1R (human) (UniProt P08069)
[34] = target: MAP4K5 (human) (UniProt Q9Y4K4)
[35] = target: NEK9 (human) (UniProt Q8TD19)
[36] = target: EPHB1 (human) (UniProt P54762)
[37] = target: TEK (human) (UniProt Q02763)
[38] = target: NUAK2 (human) (UniProt Q9H093)
[39] = target: MAPK6 (human) (UniProt Q16659)
[40] = target: PRKCH (human) (UniProt P24723)
[41] = target: MAPK9 (human) (UniProt P45984)
[42] = target: PIK3C2B (human) (UniProt O00750)

Sequence of EIF2AK2 (human) (P19525 whole entry, looked up): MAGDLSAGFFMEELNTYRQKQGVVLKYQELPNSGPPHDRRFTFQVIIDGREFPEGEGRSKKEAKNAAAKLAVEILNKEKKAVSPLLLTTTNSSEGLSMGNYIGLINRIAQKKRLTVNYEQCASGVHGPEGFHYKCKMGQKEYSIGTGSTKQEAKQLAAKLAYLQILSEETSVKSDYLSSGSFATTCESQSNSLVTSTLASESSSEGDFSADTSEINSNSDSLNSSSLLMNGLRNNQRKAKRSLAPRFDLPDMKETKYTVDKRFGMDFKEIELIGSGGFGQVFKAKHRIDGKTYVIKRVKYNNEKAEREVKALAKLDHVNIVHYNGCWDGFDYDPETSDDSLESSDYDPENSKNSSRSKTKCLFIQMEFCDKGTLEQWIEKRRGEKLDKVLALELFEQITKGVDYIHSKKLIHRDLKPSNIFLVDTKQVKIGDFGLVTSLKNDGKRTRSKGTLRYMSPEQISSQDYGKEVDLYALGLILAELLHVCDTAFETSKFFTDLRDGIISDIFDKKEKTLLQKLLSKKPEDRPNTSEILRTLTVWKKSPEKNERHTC
Sequence of SIK2 (human) (Q9H0K1 whole entry, looked up): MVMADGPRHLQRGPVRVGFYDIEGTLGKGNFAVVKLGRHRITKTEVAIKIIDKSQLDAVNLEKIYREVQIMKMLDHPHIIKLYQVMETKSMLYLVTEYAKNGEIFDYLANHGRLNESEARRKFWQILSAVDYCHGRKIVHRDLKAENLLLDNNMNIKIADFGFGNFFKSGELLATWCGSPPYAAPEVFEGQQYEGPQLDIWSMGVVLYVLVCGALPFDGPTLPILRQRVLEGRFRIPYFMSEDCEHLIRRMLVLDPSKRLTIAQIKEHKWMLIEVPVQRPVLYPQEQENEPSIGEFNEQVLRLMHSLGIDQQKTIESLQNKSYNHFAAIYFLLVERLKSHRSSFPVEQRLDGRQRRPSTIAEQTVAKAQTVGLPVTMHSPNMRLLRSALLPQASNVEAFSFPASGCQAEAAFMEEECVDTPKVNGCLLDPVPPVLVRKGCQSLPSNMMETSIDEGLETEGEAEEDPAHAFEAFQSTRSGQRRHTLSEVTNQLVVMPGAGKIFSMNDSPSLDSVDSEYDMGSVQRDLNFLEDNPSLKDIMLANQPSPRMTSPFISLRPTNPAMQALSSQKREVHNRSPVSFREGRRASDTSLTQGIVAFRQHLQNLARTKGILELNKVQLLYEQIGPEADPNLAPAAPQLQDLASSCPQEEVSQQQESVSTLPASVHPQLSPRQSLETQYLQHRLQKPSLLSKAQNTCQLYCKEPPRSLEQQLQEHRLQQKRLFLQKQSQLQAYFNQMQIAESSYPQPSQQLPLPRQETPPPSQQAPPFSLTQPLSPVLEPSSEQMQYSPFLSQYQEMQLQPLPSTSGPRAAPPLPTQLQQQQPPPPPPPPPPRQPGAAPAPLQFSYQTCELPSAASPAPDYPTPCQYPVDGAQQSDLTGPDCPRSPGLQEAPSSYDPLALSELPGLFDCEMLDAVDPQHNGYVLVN
Sequence of TSSK1B (human) (Q9BXA7 whole entry, looked up): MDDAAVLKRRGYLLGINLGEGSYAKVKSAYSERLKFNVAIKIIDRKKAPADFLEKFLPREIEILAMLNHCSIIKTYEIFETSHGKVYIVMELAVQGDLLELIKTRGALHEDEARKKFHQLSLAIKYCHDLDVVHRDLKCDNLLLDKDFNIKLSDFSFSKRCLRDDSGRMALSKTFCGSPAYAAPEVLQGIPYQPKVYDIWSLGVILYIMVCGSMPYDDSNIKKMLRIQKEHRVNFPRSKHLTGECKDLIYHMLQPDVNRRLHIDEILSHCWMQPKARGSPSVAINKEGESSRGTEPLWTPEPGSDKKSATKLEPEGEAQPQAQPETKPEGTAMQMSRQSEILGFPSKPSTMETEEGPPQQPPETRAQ
Sequence of MARK3 (human) (P27448 whole entry, looked up): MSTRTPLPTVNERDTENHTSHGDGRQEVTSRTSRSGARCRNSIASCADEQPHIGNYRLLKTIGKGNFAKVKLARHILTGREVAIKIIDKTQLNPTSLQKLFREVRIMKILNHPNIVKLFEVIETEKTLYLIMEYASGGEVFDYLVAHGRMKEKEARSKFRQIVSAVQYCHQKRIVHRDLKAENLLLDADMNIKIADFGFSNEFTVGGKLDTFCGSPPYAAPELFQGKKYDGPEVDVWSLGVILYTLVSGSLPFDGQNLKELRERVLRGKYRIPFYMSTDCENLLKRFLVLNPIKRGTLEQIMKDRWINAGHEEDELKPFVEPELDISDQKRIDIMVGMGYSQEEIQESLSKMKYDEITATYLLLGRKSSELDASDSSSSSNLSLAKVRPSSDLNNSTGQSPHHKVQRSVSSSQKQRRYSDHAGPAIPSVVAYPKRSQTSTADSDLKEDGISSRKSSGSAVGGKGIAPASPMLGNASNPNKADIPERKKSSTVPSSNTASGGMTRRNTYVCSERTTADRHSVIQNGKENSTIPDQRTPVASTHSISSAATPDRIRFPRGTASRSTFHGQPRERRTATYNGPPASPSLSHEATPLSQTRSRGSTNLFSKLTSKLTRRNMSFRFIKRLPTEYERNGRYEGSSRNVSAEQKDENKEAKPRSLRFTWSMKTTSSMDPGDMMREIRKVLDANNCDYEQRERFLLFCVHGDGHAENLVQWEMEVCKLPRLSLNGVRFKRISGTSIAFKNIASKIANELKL
Sequence of TGFBR1 (human) (P36897 whole entry, looked up): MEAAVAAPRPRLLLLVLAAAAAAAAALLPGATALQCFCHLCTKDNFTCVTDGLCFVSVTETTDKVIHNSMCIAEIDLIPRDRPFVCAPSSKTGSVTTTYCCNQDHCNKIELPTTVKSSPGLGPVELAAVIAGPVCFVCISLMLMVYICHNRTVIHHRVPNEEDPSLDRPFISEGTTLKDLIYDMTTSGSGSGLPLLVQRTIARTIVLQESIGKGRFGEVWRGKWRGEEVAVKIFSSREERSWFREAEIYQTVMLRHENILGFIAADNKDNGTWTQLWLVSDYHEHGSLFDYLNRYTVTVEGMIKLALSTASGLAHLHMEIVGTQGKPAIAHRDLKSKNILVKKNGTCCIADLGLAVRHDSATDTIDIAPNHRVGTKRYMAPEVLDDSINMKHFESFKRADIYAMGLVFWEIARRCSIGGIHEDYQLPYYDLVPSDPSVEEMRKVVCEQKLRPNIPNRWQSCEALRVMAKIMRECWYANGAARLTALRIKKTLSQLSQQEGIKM
Sequence of CDK14 (human) (O94921 whole entry, looked up): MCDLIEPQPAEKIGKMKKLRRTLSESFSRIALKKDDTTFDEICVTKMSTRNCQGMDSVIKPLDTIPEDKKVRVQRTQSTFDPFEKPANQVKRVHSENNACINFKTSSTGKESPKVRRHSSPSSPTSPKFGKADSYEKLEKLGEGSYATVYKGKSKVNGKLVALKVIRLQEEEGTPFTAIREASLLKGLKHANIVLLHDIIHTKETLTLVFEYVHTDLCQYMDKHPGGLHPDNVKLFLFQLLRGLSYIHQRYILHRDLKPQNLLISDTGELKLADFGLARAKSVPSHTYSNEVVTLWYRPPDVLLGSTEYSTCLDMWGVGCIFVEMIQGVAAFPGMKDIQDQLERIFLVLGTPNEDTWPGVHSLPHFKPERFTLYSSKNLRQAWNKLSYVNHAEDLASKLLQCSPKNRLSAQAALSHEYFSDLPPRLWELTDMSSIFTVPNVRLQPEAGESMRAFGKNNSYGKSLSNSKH
Sequence of NUAK2 (human) (Q9H093 whole entry, looked up): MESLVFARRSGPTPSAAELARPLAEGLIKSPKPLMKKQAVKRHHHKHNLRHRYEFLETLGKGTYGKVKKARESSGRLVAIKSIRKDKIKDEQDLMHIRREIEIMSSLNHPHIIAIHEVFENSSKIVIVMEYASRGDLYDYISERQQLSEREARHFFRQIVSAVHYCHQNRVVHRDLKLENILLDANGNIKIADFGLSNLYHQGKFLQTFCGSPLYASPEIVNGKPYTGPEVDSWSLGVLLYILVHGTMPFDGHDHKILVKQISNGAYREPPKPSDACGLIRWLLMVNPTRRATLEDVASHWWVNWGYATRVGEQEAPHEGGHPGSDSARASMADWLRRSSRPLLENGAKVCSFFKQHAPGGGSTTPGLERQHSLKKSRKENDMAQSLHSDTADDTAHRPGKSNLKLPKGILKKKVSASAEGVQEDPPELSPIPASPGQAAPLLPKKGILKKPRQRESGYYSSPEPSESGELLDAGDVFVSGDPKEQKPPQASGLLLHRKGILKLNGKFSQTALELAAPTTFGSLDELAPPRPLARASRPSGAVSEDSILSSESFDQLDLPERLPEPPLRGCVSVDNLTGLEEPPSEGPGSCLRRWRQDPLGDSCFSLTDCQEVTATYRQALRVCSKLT
Sequence of RAF1 (human) (P04049 whole entry, looked up): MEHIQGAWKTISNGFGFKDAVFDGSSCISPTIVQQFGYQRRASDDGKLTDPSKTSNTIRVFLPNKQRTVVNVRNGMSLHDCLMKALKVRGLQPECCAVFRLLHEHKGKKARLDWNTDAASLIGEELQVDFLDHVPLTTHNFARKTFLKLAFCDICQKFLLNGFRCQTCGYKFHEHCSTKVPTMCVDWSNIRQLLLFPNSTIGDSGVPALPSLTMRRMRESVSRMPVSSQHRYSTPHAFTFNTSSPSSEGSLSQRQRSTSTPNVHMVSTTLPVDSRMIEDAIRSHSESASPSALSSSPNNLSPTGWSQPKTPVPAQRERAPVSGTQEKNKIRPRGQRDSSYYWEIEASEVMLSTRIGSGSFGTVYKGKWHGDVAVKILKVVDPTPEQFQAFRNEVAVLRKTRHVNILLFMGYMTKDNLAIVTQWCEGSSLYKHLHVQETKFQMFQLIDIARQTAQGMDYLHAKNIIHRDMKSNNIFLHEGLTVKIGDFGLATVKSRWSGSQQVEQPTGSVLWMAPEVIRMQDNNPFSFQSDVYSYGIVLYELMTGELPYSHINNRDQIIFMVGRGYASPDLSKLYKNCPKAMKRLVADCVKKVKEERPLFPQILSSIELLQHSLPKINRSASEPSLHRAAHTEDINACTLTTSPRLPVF

SMILES: COc1cc(N2CCC(O)CC2)ccc1Nc1ncc2c(n1)N1CCc3cccc(c31)C(=O)N2C
kinase still bound, per cent of control [2]: 74%
kinase still bound, per cent of control [3]: 98%
kinase still bound, per cent of control [4]: 100%
kinase still bound, per cent of control [5]: 81%
kinase still bound, per cent of control [6]: 94%
kinase still bound, per cent of control [7]: 100%
kinase still bound, per cent of control [8]: 94%
kinase still bound, per cent of control [9]: 100%
kinase still bound, per cent of control [10]: 97%
kinase still bound, per cent of control [11]: 97%
kinase still bound, per cent of control [12]: 100%
kinase still bound, per cent of control [13]: 67%
kinase still bound, per cent of control [14]: 88%
kinase still bound, per cent of control [15]: 100%
kinase still bound, per cent of control [16]: 100%
kinase still bound, per cent of control [17]: 95%
kinase still bound, per cent of control [18]: 84%
kinase still bound, per cent of control [19]: 78%
kinase still bound, per cent of control [20]: 100%
kinase still bound, per cent of control [21]: 75%
kinase still bound, per cent of control [22]: 100%
kinase still bound, per cent of control [23]: 57%
kinase still bound, per cent of control [24]: 100%
kinase still bound, per cent of control [25]: 96%
kinase still bound, per cent of control [26]: 48%
kinase still bound, per cent of control [27]: 100%
kinase still bound, per cent of control [28]: 91%
kinase still bound, per cent of control [29]: 94%
kinase still bound, per cent of control [30]: 4.6%
kinase still bound, per cent of control [31]: 92%
kinase still bound, per cent of control [32]: 99%
kinase still bound, per cent of control [33]: 100%
kinase still bound, per cent of control [34]: 99%
kinase still bound, per cent of control [35]: 77%
kinase still bound, per cent of control [36]: 99%
kinase still bound, per cent of control [1]: 100%
kinase still bound, per cent of control [37]: 98%
kinase still bound, per cent of control [38]: 60%
kinase still bound, per cent of control [39]: 100%
kinase still bound, per cent of control [40]: 100%
kinase still bound, per cent of control [41]: 51%
kinase still bound, per cent of control [42]: 100%

SMILES: N=C1NC(=O)/C(=C/c2ccc(-c3cncc4ccccc34)o2)S1
kinase still bound, per cent of control [8]: 23%
kinase still bound, per cent of control [23]: 18%
kinase still bound, per cent of control [24]: 27%
kinase still bound, per cent of control [25]: 15%
kinase still bound, per cent of control [26]: 25%
kinase still bound, per cent of control [29]: 30%
kinase still bound, per cent of control [31]: 26%
kinase still bound, per cent of control [1]: 34%
kinase still bound, per cent of control [41]: 14%

SMILES: N=C1NC(=O)/C(=C/c2ccc(-c3ccc(F)cc3O)o2)S1
kinase still bound, per cent of control [18]: 29%
kinase still bound, per cent of control [28]: 19%

SMILES: N=C1NC(=O)/C(=C/c2c[nH]c(=O)c(-c3ccc(N4CCNCC4)nc3)c2)S1
kinase still bound, per cent of control [2]: 9.8%
kinase still bound, per cent of control [38]: 26%

SMILES: N=C1NC(=O)/C(=C/c2ccc(-c3ccccc3O)o2)S1
kinase still bound, per cent of control [42]: 31%

SMILES: N=C1NC(=O)/C(=C/c2ccc(-c3ccc(C(N)=O)cc3O)o2)S1
kinase still bound, per cent of control [28]: 18%
kinase still bound, per cent of control [42]: 28%

SMILES: N=C1NC(=O)/C(=C/c2ccc(-c3csc4ccccc34)o2)S1
kinase still bound, per cent of control [3]: 33%
kinase still bound, per cent of control [6]: 32%
kinase still bound, per cent of control [12]: 25%
kinase still bound, per cent of control [14]: 20%
kinase still bound, per cent of control [27]: 31%

SMILES: O=C1NC(=S)S/C1=C\c1ccc(-c2cncc3ccccc23)o1
kinase still bound, per cent of control [3]: 25%
kinase still bound, per cent of control [6]: 30%
kinase still bound, per cent of control [8]: 26%
kinase still bound, per cent of control [11]: 23%
kinase still bound, per cent of control [23]: 34%
kinase still bound, per cent of control [26]: 23%
kinase still bound, per cent of control [30]: 28%
kinase still bound, per cent of control [41]: 20%

More lines, main results first:

kinase still bound, per cent of control [1]: 24%
SMILES: CS(=O)(=O)Nc1ccc(-c2cc(/C=C3\SC(=N)NC3=O)c[nH]c2=O)cc1

kinase still bound, per cent of control [4]: 25%
kinase still bound, per cent of control [18]: 9.4%
SMILES: Nc1cccc(-c2cc(/C=C3\SC(=O)NC3=O)c[nH]c2=O)c1

kinase still bound, per cent of control [5]: 9%
kinase still bound, per cent of control [20]: 6.8%
kinase still bound, per cent of control [29]: 11%
SMILES: CN1C(=O)[C@H]2CCC[C@H]2N(C2CCCC2)c2nc(Nc3ccc(C(N)=O)cc3)ncc21
kinase still bound, per cent of control [35]: 8.9%

kinase still bound, per cent of control [2]: 100%
kinase still bound, per cent of control [3]: 100%
kinase still bound, per cent of control [4]: 100%
kinase still bound, per cent of control [5]: 100%
kinase still bound, per cent of control [6]: 100%
kinase still bound, per cent of control [7]: 100%
kinase still bound, per cent of control [8]: 100%
kinase still bound, per cent of control [9]: 100%
kinase still bound, per cent of control [10]: 100%
kinase still bound, per cent of control [11]: 100%
kinase still bound, per cent of control [12]: 100%
kinase still bound, per cent of control [13]: 100%
kinase still bound, per cent of control [14]: 100%
kinase still bound, per cent of control [15]: 100%
kinase still bound, per cent of control [16]: 100%
kinase still bound, per cent of control [17]: 100%
kinase still bound, per cent of control [18]: 100%
kinase still bound, per cent of control [19]: 100%
kinase still bound, per cent of control [20]: 82%
kinase still bound, per cent of control [21]: 100%
kinase still bound, per cent of control [22]: 100%
kinase still bound, per cent of control [23]: 100%
kinase still bound, per cent of control [24]: 89%
kinase still bound, per cent of control [25]: 100%
kinase still bound, per cent of control [26]: 91%
kinase still bound, per cent of control [27]: 86%
kinase still bound, per cent of control [28]: 100%
kinase still bound, per cent of control [29]: 100%
kinase still bound, per cent of control [30]: 100%
kinase still bound, per cent of control [31]: 100%
kinase still bound, per cent of control [32]: 100%
kinase still bound, per cent of control [33]: 100%
kinase still bound, per cent of control [34]: 100%
kinase still bound, per cent of control [36]: 100%
kinase still bound, per cent of control [1]: 100%
kinase still bound, per cent of control [37]: 97%
kinase still bound, per cent of control [38]: 70%
kinase still bound, per cent of control [39]: 78%
kinase still bound, per cent of control [40]: 86%
kinase still bound, per cent of control [41]: 100%
kinase still bound, per cent of control [42]: 97%
SMILES: CN1C(=O)c2ccccc2N(C)c2nc(NS(=O)(=O)c3ccc(N)cc3)ncc21
kinase still bound, per cent of control [35]: 100%

kinase still bound, per cent of control [17]: 21%
kinase still bound, per cent of control [18]: 17%
kinase still bound, per cent of control [24]: 24%
kinase still bound, per cent of control [34]: 12%
kinase still bound, per cent of control [1]: 16%
SMILES: CS(=O)(=O)Nc1ccc(-c2cncc(/C=C3\SC(=N)NC3=O)c2)cc1

kinase still bound, per cent of control [31]: 25%
kinase still bound, per cent of control [38]: 32%
SMILES: CSC1=NC(=O)/C(=C/c2c[nH]c(=O)c(-c3ccc(NS(C)(=O)=O)cc3)c2)S1
